Reference: patent US10471046B2, “Method for treating, preventing, or reducing the risk of skin infection” (Melinta Subsidiary Corp., priority 2014, dated 2019)
Converted amounts (≈) assume the structure as drawn.

Test system: S. aureus
Test: Minimum inhibitory concentrations (MICs) for S. aureus of exemplary compounds (Table 2)
Format: cell-based
Conditions: minimum inhibitory concentrations for S. aureus; for MIC: Staphylococcus aureus, read-out: MICs
Method in brief: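 Growth of S. aureus in media with or without compound, by broth microdilution in microtiter trays following NCCLS M7-A5 guidelines. Values are MICs in μg/mL.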

SMILES | MIC [µg/mL] | MICs [µg/mL]
CC(=O)NC[C@H]1CN(c2ccc(-c3ccc(CN(C)Cc4ccncc4)cc3)c(F)c2)C(=O)O1 [Compound 4044, N-(3-{2-Fluoro-4′-[(methyl-pyridin-4-ylmethyl-amino)-methyl]-biphenyl-4-yl}-2-oxo-oxazolidin-5-(S)-ylmethyl)-acetamide] | 1 (≈ 2.16 µM) | –
CC(=O)NC[C@H]1CN(c2ccc(-c3ccc(CNCCCc4cnn[nH]4)cc3)c(F)c2)C(=O)O1 [Compound 4258, N-[3-(2-Fluoro-4′-{[3-(3H-[1,2,3]triazol-4-yl)-propylamino]-methyl}-biphenyl-4-yl)-2-oxo-oxazolidin-5-(S)-ylmethyl]-acetamide] | 4 (≈ 8.57 µM) | –
CC(=O)NC[C@H]1CN(c2ccc(-c3ccc(COCc4ccccn4)nc3)c(F)c2)C(=O)O1 [Compound 4195, N-(3-{3-Fluoro-4-[6-(pyridin-2-ylmethoxymethyl)-pyridin-3-yl]-phenyl}-2-oxo-oxazolidin-5-(S)-ylmethyl)-acetamide] | 1 (≈ 2.22 µM) | –
CC(=O)NC[C@H]1CN(c2ccc(-c3ccc(CNCC(O)c4ccc(F)cc4)cc3)c(F)c2)C(=O)O1 (mixture of isomers) [Compound 4275, N-[3-(2-Fluoro-4′-{[2-(4-fluoro-phenyl)-2-(R/S)-hydroxy-ethylamino]-methyl}-biphenyl-4-yl)-2-oxo-oxazolidin-5-(S)-ylmethyl]-acetamide] | 0.5 | –
CC(=O)NC[C@H]1CN(c2ccc(-c3ccc(CNn4cnnc4)cc3)c(F)c2)C(=O)O1 [Compound 2046, N-{3-[2-Fluoro-4′-([1,2,4]triazol-4-ylaminomethyl)-biphenyl-4-yl]-2-oxo-oxazolidin-5-(S)-ylmethyl}-acetamide] | 1 (≈ 2.36 µM) | –
CC(=O)NC[C@H]1CN(c2ccc(-c3ccc([C@H](CO)NCc4c(C)nc(O)nc4O)cc3)c(F)c2)C(=O)O1 [Compound 4030, N-[3-(4′-{1-(R)-[(2,4-Dihydroxy-6-methyl-pyrimidin-5-ylmethyl)-amino]-2-hydroxy-ethyl}-2-fluoro-biphenyl-4-yl)-2-oxo-oxazolidin-5-(S)-ylmethyl]-acetamide] | 64 (≈ 122 µM) | –
CC(=O)NC[C@H]1CN(c2ccc(-c3ccc(CNC(=O)/C=C/c4cncnc4)cc3)c(F)c2)C(=O)O1 [Compound 4006, N-{4′-[5-(S)-(Acetylamino-methyl)-2-oxo-oxazolidin-3-yl]-2′-fluoro-biphenyl-4-ylmethyl}-3-pyrimidin-5-yl-acrylamide] | 8 (≈ 16.3 µM) | –
COc1ccc(CN(C)Cc2ccc(-c3ccc(N4C[C@H](CNC(C)=O)OC4=O)cc3F)cc2)cn1 [Compound 4055, N-[3-(2-Fluoro-4′-{[(6-methoxy-pyridin-3-ylmethyl)-methyl-amino]-methyl}-biphenyl-4-yl)-2-oxo-oxazolidin-5-(S)-ylmethyl]-acetamide] | 2 (≈ 4.06 µM) | –
O=C(CCl)NC[C@H]1CN(c2ccc(-c3ccc(Cn4cnnn4)cc3)c(F)c2)C(=O)O1 [Compound 1033, 2-Chloro-N-[3-(2-fluoro-4′-tetrazol-1-ylmethyl-biphenyl-4-yl)-2-oxo-oxazolidin-5-(S)-ylmethyl]-acetamide] | 0.25 (≈ 0.562 µM) | –
CC(=O)NC[C@H]1CN(c2ccc(-c3ccc(CNS(=O)(=O)c4cccc5cccnc45)cc3)c(F)c2)C(=O)O1 [Compound 2051, N-(3-{2-Fluoro-4′-[(quinoline-8-sulfonylamino)-methyl]-biphenyl-4-yl}-2-oxo-oxazolidin-5-(S)-ylmethyl)-acetamide] | 4 (≈ 7.29 µM) | –
CC(=O)NC[C@H]1CN(c2ccc(-c3ccc([C@H](O)CN(Cc4ccccc4)C(C)=O)cc3)c(F)c2)C(=O)O1 [Compound 4250, N-(2-{4′-[5-(S)-(Acetylamino-methyl)-2-oxo-oxazolidin-3-yl]-2′-fluoro-biphenyl-4-yl}-2-(S)-hydroxy-ethyl)-N-benzyl-acetamide] | 2 (≈ 3.85 µM) | –
CC(=O)NC[C@H]1CN(c2ccc(-c3ccc(C(=O)NCCc4ccccn4)cc3)c(F)c2)C(=O)O1 [Compound 4115, 4′-[5-(S)-(Acetylamino-methyl)-2-oxo-oxazolidin-3-yl]-2′-fluoro-biphenyl-4-carboxylic acid (2-pyridin-2-yl-ethyl)-amide] | 0.5 (≈ 1.05 µM) | –
CC(=O)NC[C@H]1CN(c2ccc(-c3ccc(CNCc4cccn4C)cc3)c(F)c2)C(=O)O1 [Compound 4059, N-[3-(2-Fluoro-4′-{[(1-methyl-1H-pyrrol-2-ylmethyl)-amino]-methyl}-biphenyl-4-yl)-2-oxo-oxazolidin-5-(S)-ylmethyl]-acetamide] | 2 (≈ 4.44 µM) | –
CC(=O)NC[C@H]1CN(c2ccc(-c3ccc(CNCc4c(C(F)(F)F)nn(C)c4Cl)cc3)c(F)c2)C(=O)O1 [Compound 4125, N-[3-(4′-{[(5-Chloro-1-methyl-3-trifluoromethyl-1H-pyrazol-4-ylmethyl)-amino]-methyl}-2-fluoro-biphenyl-4-yl)-2-oxo-oxazolidin-5-(S)-ylmethyl]-acetamide] | 0.5 (≈ 0.903 µM) | –
COc1ccc2[nH]cc(CNCc3ccc(-c4ccc(N5C[C@H](CNC(C)=O)OC5=O)cc4F)cc3)c2c1 [Compound 4098, N-[3-(2-Fluoro-4′-{[(5-methoxy-1H-indol-3-ylmethyl)-amino]-methyl}-biphenyl-4-yl)-2-oxo-oxazolidin-5-(S)-ylmethyl]-acetamide] | 2 (≈ 3.87 µM) | –
CSc1nnn(Cc2ccc(-c3ccc(N4C[C@H](CNC(C)=O)OC4=O)cc3F)cc2)n1 [Compound 1080, N-{3-[2-Fluoro-4′-(5-methylsulfanyl-tetrazol-2-ylmethyl)-biphenyl-4-yl]-2-oxo-oxazolidin-5-(S)-ylmethyl}-acetamide] | 0.25 (≈ 0.548 µM) | –
CC(=O)NC[C@H]1CN(c2ccc(-c3ccc(CNCc4ccc(Cl)cc4Cl)cc3)c(F)c2)C(=O)O1 [Compound 4064, N-(3-{4′-[(2,4-Dichloro-benzylamino)-methyl]-2-fluoro-biphenyl-4-yl}-2-oxo-oxazolidin-5-(S)-ylmethyl)-acetamide] | 2 (≈ 3.87 µM) | –
CC(=O)NC[C@H]1CN(c2ccc(-c3ccc(CNC(C(N)=O)c4cccnc4)cc3)c(F)c2)C(=O)O1 (stereo partly drawn) [Compound 4293, 2-({4′-[5-(S)-(Acetylamino-methyl)-2-oxo-oxazolidin-3-yl]-2′-fluoro-biphenyl-4-ylmethyl}-amino)-2-pyridin-3-yl-acetamide] | 4 (≈ 8.14 µM) | –
CC(=O)NC[C@H]1CN(c2ccc(-c3ccc(CNCc4cccnc4N4CCOCC4)cc3)c(F)c2)C(=O)O1 [Compound 4117, N-[3-(2-Fluoro-4′-{[(2-morpholin-4-yl-pyridin-3-ylmethyl)-amino]-methyl}-biphenyl-4-yl)-2-oxo-oxazolidin-5-(S)-ylmethyl]-acetamide] | 8 (≈ 15 µM) | –
CCSc1nnnn1Cc1ccc(-c2ccc(N3C[C@H](CNC(C)=O)OC3=O)cc2F)cc1 [Compound 1081, N-{3-[4′-(5-Ethylsulfanyl-tetrazol-1-ylmethyl)-2-fluoro-biphenyl-4-yl]-2-oxo-oxazolidin-5-(S)-ylmethyl}-acetamide] | 2 (≈ 4.25 µM) | –
CC(=O)NC[C@H]1CN(c2ccc(-c3ccc(C(CO)NCc4csnn4)cc3)c(F)c2)C(=O)O1 (mixture of isomers) [Compound 4172, N-[3-(2-Fluoro-4′-{2-hydroxy-1-[([1,2,3]thiadiazol-4-(R/S)-ylmethyl)-amino]-ethyl}-biphenyl-4-yl)-2-oxo-oxazolidin-5-(S)-ylmethyl]-acetamide] | – | 8
CC(=O)NC[C@H]1CN(c2ccc(-c3ccc(CNc4nc(CNC(=O)[C@@H](N)CCCCN)ns4)cc3)c(F)c2)C(=O)O1 [Compound 2014, 2,6-Diamino-hexanoic acid [5-({4′-[5-(acetylamino-methyl)-2-oxo-oxazolidin-3-yl]-2′-fluoro-biphenyl-4-ylmethyl}-amino)-[1,2,4]thiadiazol-3-ylmethyl]-amide] | 2 (≈ 3.34 µM) | –
CC(=O)NC[C@H]1CN(c2ccc(-c3ccc(CNC(=O)c4cnc5ccccc5c4)cc3)c(F)c2)C(=O)O1 [Compound 4009, Quinoline-3-carboxylic acid {4′-[5-(S)-(acetylamino-methyl)-2-oxo-oxazolidin-3-yl]-2′-fluoro-biphenyl-4-ylmethyl}-amide] | 32 (≈ 62.4 µM) | –
CC(=O)NC[C@H]1CN(c2ccc(-c3ccc(CNCc4cccn4S(=O)(=O)c4ccccc4)cc3)c(F)c2)C(=O)O1 [Compound 4100, N-[3-(4′-{[(1-Benzenesulfonyl-1H-pyrrol-2-ylmethyl)-amino]-methyl}-2-fluoro-biphenyl-4-yl)-2-oxo-oxazolidin-5-(S)-ylmethyl]-acetamide] | 4 (≈ 6.94 µM) | –
CC(=O)NC[C@H]1CN(c2ccc(-c3ccc(Cn4cccc4)nc3)c(F)c2)C(=O)O1 [Compound 1071, N-{3-[3-Fluoro-4-(6-pyrrol-1-ylmethyl-pyridin-3-yl)-phenyl]-2-oxo-oxazolidin-5-(S)-ylmethyl}-acetamide] | 0.25 (≈ 0.612 µM) | –
CCc1ccc(CNCc2ccc(-c3ccc(N4C[C@H](CNC(C)=O)OC4=O)cc3F)cc2)o1 [Compound 4161, N-[3-(4′-{[(5-Ethyl-furan-2-ylmethyl)-amino]-methyl}-2-fluoro-biphenyl-4-yl)-2-oxo-oxazolidin-5-(S)-ylmethyl]-acetamide] | 2 (≈ 4.3 µM) | –
CC(=O)NC[C@H]1CN(c2ccc(-c3ccc(CNCC4CCCN4)cc3)c(F)c2)C(=O)O1 (mixture of isomers) [Compound 4279, N-[3-(2-Fluoro-4′-{[(pyrrolidin-2-(R/S)-ylmethyl)-amino]-methyl}-biphenyl-4-yl)-2-oxo-oxazolidin-5-(S)-ylmethyl]-acetamide] | 4 | –
CC(=O)NC[C@H]1CN(c2ccc(-c3ccc(CNCc4csnn4)c(F)c3)c(F)c2)C(=O)O1 [Compound 4164, N-[3-(2,3′-Difluoro-4′-{[([1,2,3]thiadiazol-4-ylmethyl)-amino]-methyl}-biphenyl-4-yl)-2-oxo-oxazolidin-5-(S)-ylmethyl]-acetamide] | 1 (≈ 2.11 µM) | –
CC(=O)NC[C@H]1CN(c2ccc(-c3ccc(CNC(=O)Cn4ccnn4)cc3)c(F)c2)C(=O)O1 [Compound 4239, N-{4′-[5-(S)-(Acetylamino-methyl)-2-oxo-oxazolidin-3-yl]-2′-fluoro-biphenyl-4-ylmethyl}-2-[1,2,3]triazol-1-yl-acetamide] | 2 (≈ 4.29 µM) | –
CC(=O)NC[C@H]1CN(c2ccc(-c3ccc(CSc4nnnn4C)cc3)c(F)c2)C(=O)O1 [Compound 2015, N-{3-[2-Fluoro-4′-(1-methyl-1H-tetrazol-5-ylsulfanylmethyl)-biphenyl-4-yl]-2-oxo-oxazolidin-5-(S)-ylmethyl}-acetamide] | 0.25 (≈ 0.548 µM) | –
